Measurements reported in patent US20150141381A1, “TETRACYCLINE COMPOUNDS HAVING TARGET THERAPEUTIC ACTIVITIES” (Paratek Pharmaceuticals, Inc., priority 2001, published 2015).
Where two headings read alike, the source gives them in different places.

Columns and labels:
[1] = tested on: E. coli mL308 225; experiment: In Vitro Anti-Bacterial Activity Assay (MIC), gram negative; format: cell-based; details: Escherichia coli, ML308225, 18 h
[2] = tested on: S. aureus RN450; experiment: In Vitro Anti-Bacterial Activity Assay (MIC), gram positive; format: cell-based; details: Staphylococcus aureus, RN450, 18 h
[3] = MIC class, Table 3, read-out: Antibiotic Activity Gram −
[4] = MIC class, Table 3, read-out: Antibiotic Activity Gram +
[5] = gram negative bacteria, read-out: Antibiotic Activity Gram − (MIC)
[6] = gram positive bacteria, read-out: Antibiotic Activity Gram + (MIC)
[7] = MIC class, Table 3 (Continued), read-out: Gram− activity
[8] = MIC class, Table 3 (Continued), read-out: Gram+ activity

SMILES	MIC [1, 3]	MIC [2, 4]	MIC [1, 5]	MIC [2, 6]	further results
CNCC#Cc1ccc(O)c2c1C[C@H]1C[C@H]3[C@H](N(C)C)C(O)=C(C(N)=O)C(=O)[C@@]3(O)C(O)=C1C2=O [KR]	< 4 µg/mL	< 4 µg/mL	–	–	–
CN(C)c1ccc(O)c2c1C[C@H]1C[C@H]3CC(O)=C(C(N)=O)C(=O)[C@@]3(O)C(O)=C1C2=O	–	–	< 4 µg/mL	< 4 µg/mL	–
CN(C)[C@@H]1C(O)=C(C(N)=O)C(=O)[C@@]2(O)C(O)=C3C(=O)c4c(O)ccc(C5C=CCC5)c4C[C@H]3C[C@@H]12 (some centres unmarked)	–	–	–	–	MIC [1, 7]: < 4 µg/mL; MIC [2, 8]: < 4 µg/mL
COc1ccc(/C=C/c2ccc(O)c3c2C[C@H]2C[C@H]4[C@H](N(C)C)C(O)=C(C(N)=O)C(=O)[C@@]4(O)C(O)=C2C3=O)cc1OC	–	–	–	–	MIC [1, 7]: < 4 µg/mL; MIC [2, 8]: < 4 µg/mL
COCc1cccc(-c2ccc(O)c3c2C[C@H]2C[C@H]4[C@H](N(C)C)C(O)=C(C(N)=O)C(=O)[C@@]4(O)C(O)=C2C3=O)c1	–	–	< 4 µg/mL	< 4 µg/mL	–
CN1CCN(Cc2ccc(-c3ccc(O)c4c3C[C@H]3C[C@H]5[C@@H](N(C)C)C(O)=C(C(N)=O)C(=O)[C@@]5(O)C(O)=C3C4=O)o2)CC1 [LN]	< 4 µg/mL	< 4 µg/mL	–	–	–
C[C@H]1c2ccc(CNCC(C)(C)C)c(O)c2C(=O)C2=C(O)[C@]3(O)C(=O)C(C(N)=O)=C(O)[C@@H](N(C)C)[C@@H]3[C@@H](O)[C@@H]21 [drawing 3661]	–	–	> 4 µg/mL	> 4 µg/mL	–
CN(C)[C@@H]1C(O)=C(C(N)=O)C(=O)[C@@]2(O)C(O)=C3C(=O)c4c(O)ccc(-c5ccc(C(=O)O)cc5)c4C[C@H]3C[C@@H]12 [BN]	> 4 µg/mL	< 4 µg/mL	–	–	–
CN(C)c1cc(CN2CCC(=O)CC2)c(O)c2c1C[C@H]1C[C@H]3[C@H](N(C)C)C(O)=C(C(N)=O)C(=O)[C@@]3(O)C(O)=C1C2=O	–	–	> 4 µg/mL	< 4 µg/mL	–
CN(C)c1cc(CN2CCc3ccccc3C2)c(O)c2c1C[C@H]1C[C@H]3[C@H](N(C)C)C(O)=C(C(N)=O)C(=O)[C@@]3(O)C(O)=C1C2=O	–	–	< 4 µg/mL	< 4 µg/mL	–
C[C@H]1c2ccc(-c3cc4ccccc4s3)c(O)c2C(=O)C2=C(O)[C@]3(O)C(=O)C(C(N)=O)=C(O)[C@@H](N(C)C)[C@@H]3[C@@H](O)[C@@H]21	–	–	< 4 µg/mL	< 4 µg/mL	–
Cc1cc(-c2ccccn2)c2c(c1O)C(=O)C1=C(O)[C@]3(O)C(=O)C(C(N)=O)=C(O)[C@@H](N(C)C)[C@@H]3C[C@@H]1C2	–	–	> 4 µg/mL	< 4 µg/mL	–
CC(=O)c1cc(C(C)=O)c2c(c1O)C(=O)C1=C(O)[C@]3(O)C(=O)C(C(N)=O)=C(O)[C@@H](N(C)C)[C@@H]3C[C@@H]1C2 [EB]	> 4 µg/mL	< 4 µg/mL	–	–	–
COc1ccc(-c2cc(CNC(C)CF)c(O)c3c2C[C@H]2C[C@H]4[C@H](N(C)C)C(O)=C(C(N)=O)C(=O)[C@@]4(O)C(O)=C2C3=O)cc1 (some centres unmarked)	–	–	–	< 4 µg/mL	MIC ([1]; read-out: Antibiotic Activity Gram − (MIC)): > 4 µg/mL
CN(C)[C@@H]1C(O)=C(C(N)=O)C(=O)[C@@]2(O)C(O)=C3C(=O)c4c(O)ccc(-c5ccc(/C=N/CC#N)cc5)c4C[C@H]3C[C@@H]12	–	–	> 4 µg/mL	< 4 µg/mL	–
CN(C)[C@@H]1C(O)=C(C(N)=O)C(=O)[C@@]2(O)C(O)=C3C(=O)c4c(O)ccc(C5CCCC5)c4C[C@H]3C[C@@H]12	–	–	< 4 µg/mL	< 4 µg/mL	–
CCCCOCCCNCc1ccc(OC)c(-c2ccc(O)c3c2C[C@H]2C[C@H]4[C@H](N(C)C)C(O)=C(C(N)=O)C(=O)[C@@]4(O)C(O)=C2C3=O)c1 [FR]	< 4 µg/mL	< 4 µg/mL	–	–	–
CN(C)[C@@H]1C(O)=C(C(N)=O)C(=O)[C@@]2(O)C(O)=C3C(=O)c4c(O)c(CNC5CCCC5)cc(-c5ccoc5)c4C[C@H]3C[C@@H]12	–	–	> 4 µg/mL	< 4 µg/mL	–
CN(C)c1cc(CN)c(O)c2c1C[C@H]1C[C@H]3[C@H](N(C)C)C(O)=C(C(N)=O)C(=O)[C@@]3(O)C(O)=C1C2=O	–	–	> 4 µg/mL	< 4 µg/mL	–
CN(C)c1cc(NC(=N)NCc2ccccc2)c(O)c2c1C[C@H]1C[C@H]3C(N(C)C)C(O)=C(C(N)=O)C(=O)[C@@]3(O)C(O)=C1C2=O (some centres unmarked) [GM]	> 4 µg/mL	> 4 µg/mL	–	–	–

SMILES	MIC [1, 3]	MIC [2, 4]	MIC [1, 5]	MIC [2, 6]	further results
C/C(=N/OCC(C)C)c1ccc(O)c2c1C[C@H]1C[C@H]3[C@H](N(C)C)C(O)=C(C(N)=O)C(=O)[C@@]3(O)C(O)=C1C2=O	–	–	< 4 µg/mL	< 4 µg/mL	–
CN(C)[C@@H]1C(O)=C(C(N)=O)C(=O)[C@@]2(O)C(O)=C3C(=O)c4c(O)ccc(C#CCO)c4C[C@H]3C[C@@H]12	–	–	> 4 µg/mL	< 4 µg/mL	–
CN(C)[C@@H]1C(O)=C(C(N)=O)C(=O)[C@@]2(O)C(O)=C3C(=O)c4c(O)ccc(CN(CC5CC5)CC5CC5)c4C[C@H]3C[C@@H]12 [KC]	< 4 µg/mL	< 4 µg/mL	–	–	–
CN(C)[C@@H]1C(O)=C(C(N)=O)C(=O)[C@@]2(O)C(O)=C3C(=O)c4c(O)ccc(CNC(=O)c5cnoc5)c4C[C@H]3C[C@@H]12	–	–	> 4 µg/mL	< 4 µg/mL	–
C[C@H]1c2ccc(/C=C\C(=O)NC(C)(C)C)c(O)c2C(=O)C2=C(O)[C@]3(O)C(=O)C(C(N)=O)=C(O)[C@@H](N(C)C)[C@@H]3[C@@H](O)[C@@H]21 [CU]	> 4 µg/mL	> 4 µg/mL	–	–	–
CN(C)c1cc(NCc2ccc([N+](=O)[O-])cc2)c(O)c2c1C[C@H]1C[C@H]3[C@H](N(C)C)C(O)=C(C(N)=O)C(=O)[C@@]3(O)C(O)=C1C2=O	–	–	> 4 µg/mL	< 4 µg/mL	–
CN(C)c1cc(NC(=O)Oc2ccccc2)c(O)c2c1C[C@H]1C[C@H]3[C@H](N(C)C)C(O)=C(C(N)=O)C(=O)[C@@]3(O)C(O)=C1C2=O [DT]	–	–	–	–	MIC ([1]; read-out: Antibiotic Activity Gram −): > 4 µg/mL; MIC ([2]; read-out: Antibiotic Activity Gram +): > 4 µg/mL
CCOC(=O)Nc1cc(N(C)C)c2c(c1O)C(=O)C1=C(O)[C@]3(O)C(=O)C(C(N)=O)=C(O)[C@@H](N(C)C)[C@@H]3C[C@@H]1C2 [drawing 3362]	–	–	< 4 µg/mL	< 4 µg/mL	–
CN(C)[C@@H]1C(O)=C(C(N)=O)C(=O)[C@@]2(O)C(O)=C3C(=O)c4c(O)ccc(CNC(=O)OCC(C)(C)C)c4C[C@H]3C[C@@H]12 [FU]	> 4 µg/mL	< 4 µg/mL	–	–	–
C[C@H]1c2ccc(N(C)C3CCN(C)CC3)c(O)c2C(=O)C2=C(O)[C@]3(O)C(=O)C(C(N)=O)=C(O)[C@@H](N(C)C)[C@@H]3[C@@H](O)[C@@H]21	–	–	> 4 µg/mL	> 4 µg/mL	–
CCCc1ccc(O)c2c1C[C@H]1C[C@H]3[C@H](N(C)C)C(O)=C(C(N)=O)C(=O)[C@@]3(O)C(O)=C1C2=O	–	–	< 4 µg/mL	< 4 µg/mL	–
CN(C)[C@@H]1C(O)=C(C(N)=O)C(=O)[C@@]2(O)C(O)=C3C(=O)c4c(O)ccc(-c5ccc(CNc6cccnc6)cc5)c4C[C@H]3C[C@@H]12	–	–	> 4 µg/mL	< 4 µg/mL	–
CN(C)c1cc(NC(=O)Nc2cccc(F)c2)c(O)c2c1C[C@H]1C[C@H]3[C@H](N(C)C)C(O)=C(C(N)=O)C(=O)[C@@]3(O)C(O)=C1C2=O [DD]	> 4 µg/mL	< 4 µg/mL	–	–	–
Cc1ccsc1/C=C/c1ccc(O)c2c1C[C@H]1C[C@H]3[C@H](N(C)C)C(O)=C(C(N)=O)C(=O)[C@@]3(O)C(O)=C1C2=O	–	–	–	–	MIC [1, 7]: < 4 µg/mL; MIC [2, 8]: < 4 µg/mL
C[C@H]1c2c(CN)cc(C(C)(C)C)c(O)c2C(=O)C2=C(O)[C@]3(O)C(=O)C(C(N)=O)=C(O)[C@@H](N(C)C)[C@@H]3[C@@H](O)[C@@H]21	–	–	> 4 µg/mL	> 4 µg/mL	–
CN(C)c1cc(CNC(=O)OCC(C)(C)C)c(O)c2c1C[C@H]1C[C@H]3[C@H](N(C)C)C(O)=C(C(N)=O)C(=O)[C@@]3(O)C(O)=C1C2=O [EN]	> 4 µg/mL	< 4 µg/mL	–	–	–
CCc1cc(C(C)=O)c(O)c2c1C[C@H]1C[C@H]3[C@H](N(C)C)C(O)=C(C(N)=O)C(=O)[C@@]3(O)C(O)=C1C2=O [IY]	> 4 µg/mL	< 4 µg/mL	–	–	–
CN1CCC(Nc2ccc3c(c2O)C(=O)C2=C(O)[C@]4(O)C(=O)C(C(N)=O)=C(O)[C@@H](N(C)C)[C@@H]4C[C@@H]2C3)CC1	–	–	> 4 µg/mL	< 4 µg/mL	–
CN(C)[C@@H]1C(O)=C(C(N)=O)C(=O)[C@@]2(O)C(O)=C3C(=O)c4c(O)ccc(C#CC5CCCCC5)c4C[C@H]3C[C@@H]12	–	–	–	–	MIC [1, 7]: < 4 µg/mL; MIC [2, 8]: < 4 µg/mL
C[C@H]1c2c(CN)ccc(O)c2C(=O)C2=C(O)[C@]3(O)C(=O)C(C(N)=O)=C(O)[C@@H](N(C)C)[C@@H]3[C@@H](O)[C@@H]21	–	–	> 4 µg/mL	> 4 µg/mL	–
